Laboratory results as given in patent publication US8124637B2, “Anthra [1, 2-d]imidazole-6,11-dione derivatives, preparation method and application thereof” (National Defense Medical Center, priority 2010, dated 2012).
“Also recorded” adds a separate entry of the source. Like-named read-outs stand apart in the source and are kept apart here.

How the values were obtained:
in vitro = conditions: human, Relative MTT viability (%)
Method: (§1) Further, cells were subjected to MTT assay to compare the relative toxicity or effect of each compound on cell proliferation and activity.
(§2) The above-described cells are cultured in a 96-well plate, to which was added with 25 μl MTT solution, and cultured in a 37° C. carbon dioxide incubator for 4 hours. Then, 100 μl Lysis buffer is added and incubated in a 37° C. carbon dioxide incubator overnight. An ELISA reader (Bio-Rad Model 450) is used to read optical density (O.D.) at 550 nm.
(§3) After being subjected to different compound treatments for 72 hours, cells were treated with a fixed amount of MTT solution for 28 hours. Then, DMSO was used to dissolve back formazan, an O. D. value was detected at wavelength in the range of 550/670 nm, and calculated accordingly the cell survival rate (as shown in Table 1).

[1] = tested on: hTERT promoter (PhTERT) expression; experiment: SEAP assay (PhTERT-SEAP reporter, H1299); type: cell-based, human; conditions: for activity at 1 µM / activity at 10 µM / activity at 100 µM: Homo sapiens, NCI-H1299, PhTERT-SEAP (H1299); for activity at 1 µM: read-out: Relative SEAP activity (%); for activity at 10 µM / activity at 100 µM: read-out: Relative SEAP activity (%) (converted); for Relative SEAP activity (%): PhTERT-SEAP (H1299)
Method: H1299 were grown in RPMI 1640 media supplemented with 10% fetal bovine serum, 100 units/mL penicillin and […] streptomycin in a humidified atmosphere with 5% CO2 at 37° C. Culture media were changed every three days. To establish stable cell lines that the expression of hTERT could be monitored by a reporter system, a about 3.3 kbp DNA fragment ranging from −3338 to +1 bp of the hTERT gene (hTERT promoter, PhTERT) was subcloned upstream to a secreted alkaline phosphatase gene (SEAP) and transfected into H1299 bp electroporation. The stable clones were selected using G418. The stable clones derived from H1299 were cultured using conditions that are similar to their parental cells.
Secreted alkaline phosphatase was used as the reporter system to monitor the transcriptional activity of hTERT. Here, about 10^4 cells each were grown in 96-well plates and incubated at 37° C. for 24 hours and changed with fresh media. Varying amounts of drugs were added and cells were incubated for another 24 hours. Culture media were collected and heated at 65° C. for 10 min to inactivate heat-labile phosphatases. An equal amount of SEAP buffer (2 M diethanolamine, 1 mM MgCl2, and 20 mM L-homoarginine) was added to the media and p-nitrophenyl phosphate was added to a final concentration of 12 mM. Absorptions at 405 nm were taken, and the rate of absorption increase is determined (the increasing rate of absorbance at 405 nm was used to represent the activity of SEAP).

H1299 cells [2] = tested on: H1299 cells
Method: as §1, §2, §3

[3] = MTT assay (relative cell survival), H1299; conditions: human, H1299 non-small cell lung cancer cells (PhTERT-SEAP), Relative MTT viability (%)
Method: as §1, §2, §3

[4] = target: T1, telomerase (total cell lysates of lung cancer cell line H1299) (Homo sapiens, UniProt O14746); experiment: Telomere repeat amplification protocol (TRAP) assay; type: biochemical; conditions: gel; for inhibition effect/activity of telomerase (TRAP): preliminary screening at 10 μM
T1 construct: As a source of telomerase, the total cell lysates derived from lung cancer cell line H1299 cells were used; endogenous in cells; host or cells: H1299 lung cancer cells (total cell lysate)
T1 sequence (O14746 whole entry): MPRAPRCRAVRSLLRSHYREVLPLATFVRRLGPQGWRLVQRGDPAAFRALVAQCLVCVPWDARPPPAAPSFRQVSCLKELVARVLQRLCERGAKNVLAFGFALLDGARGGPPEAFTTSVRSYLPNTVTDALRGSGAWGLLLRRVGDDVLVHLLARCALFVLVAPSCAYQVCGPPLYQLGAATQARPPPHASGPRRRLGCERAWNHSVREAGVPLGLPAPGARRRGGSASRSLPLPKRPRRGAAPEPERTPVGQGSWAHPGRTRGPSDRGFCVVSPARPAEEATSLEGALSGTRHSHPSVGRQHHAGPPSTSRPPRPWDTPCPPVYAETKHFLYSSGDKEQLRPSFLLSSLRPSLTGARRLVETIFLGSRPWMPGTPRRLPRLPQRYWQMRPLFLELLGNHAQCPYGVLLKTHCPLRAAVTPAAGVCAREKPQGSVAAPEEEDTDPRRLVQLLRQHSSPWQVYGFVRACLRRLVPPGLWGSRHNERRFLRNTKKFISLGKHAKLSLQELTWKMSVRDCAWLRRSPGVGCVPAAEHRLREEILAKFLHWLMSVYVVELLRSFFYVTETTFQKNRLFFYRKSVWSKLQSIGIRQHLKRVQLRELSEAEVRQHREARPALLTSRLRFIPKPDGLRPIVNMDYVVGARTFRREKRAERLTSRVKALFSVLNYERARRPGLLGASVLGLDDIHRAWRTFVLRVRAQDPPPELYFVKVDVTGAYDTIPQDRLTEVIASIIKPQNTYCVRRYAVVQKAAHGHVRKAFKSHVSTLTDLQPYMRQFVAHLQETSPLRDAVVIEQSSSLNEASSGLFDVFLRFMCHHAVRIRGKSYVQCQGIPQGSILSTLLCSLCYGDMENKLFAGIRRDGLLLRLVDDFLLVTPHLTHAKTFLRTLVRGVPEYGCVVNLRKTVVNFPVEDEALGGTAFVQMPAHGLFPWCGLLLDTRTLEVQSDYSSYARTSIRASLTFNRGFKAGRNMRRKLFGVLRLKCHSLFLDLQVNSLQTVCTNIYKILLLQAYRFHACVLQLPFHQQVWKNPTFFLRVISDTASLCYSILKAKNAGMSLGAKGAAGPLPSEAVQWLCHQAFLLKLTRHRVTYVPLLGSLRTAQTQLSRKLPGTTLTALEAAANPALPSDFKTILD
T1 sequence (O60832 whole entry partner): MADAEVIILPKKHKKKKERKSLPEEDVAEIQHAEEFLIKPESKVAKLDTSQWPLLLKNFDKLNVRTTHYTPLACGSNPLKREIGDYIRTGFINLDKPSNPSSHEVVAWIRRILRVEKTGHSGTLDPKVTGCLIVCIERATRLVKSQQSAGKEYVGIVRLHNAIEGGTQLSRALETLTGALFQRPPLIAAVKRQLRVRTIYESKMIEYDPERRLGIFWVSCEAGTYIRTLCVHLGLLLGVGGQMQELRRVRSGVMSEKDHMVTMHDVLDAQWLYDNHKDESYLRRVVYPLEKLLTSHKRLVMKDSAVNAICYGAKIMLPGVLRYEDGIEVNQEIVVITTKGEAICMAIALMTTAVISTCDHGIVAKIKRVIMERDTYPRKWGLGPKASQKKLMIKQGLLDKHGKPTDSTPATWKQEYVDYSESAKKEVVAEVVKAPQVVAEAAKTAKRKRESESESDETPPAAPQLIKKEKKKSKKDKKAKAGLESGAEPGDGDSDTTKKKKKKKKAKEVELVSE
T1 sequence (Q9NX24 whole entry partner): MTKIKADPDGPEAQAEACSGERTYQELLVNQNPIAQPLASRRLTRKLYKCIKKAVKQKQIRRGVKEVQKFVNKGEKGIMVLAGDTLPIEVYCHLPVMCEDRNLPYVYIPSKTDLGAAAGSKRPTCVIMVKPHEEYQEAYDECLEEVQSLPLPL
T1 sequence (Q9NPE3 whole entry partner): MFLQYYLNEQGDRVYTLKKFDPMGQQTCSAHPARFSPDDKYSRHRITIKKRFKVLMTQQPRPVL
T1 sequence (Q9NY12 whole entry partner): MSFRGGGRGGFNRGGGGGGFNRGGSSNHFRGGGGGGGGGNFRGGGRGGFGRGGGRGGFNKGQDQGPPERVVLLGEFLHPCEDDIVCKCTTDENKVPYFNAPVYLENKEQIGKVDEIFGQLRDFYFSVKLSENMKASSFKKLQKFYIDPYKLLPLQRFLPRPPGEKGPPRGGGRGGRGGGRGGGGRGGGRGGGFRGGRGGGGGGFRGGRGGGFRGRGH
Method: Telomerase activity was detected by a modified version of the general TRAP protocol. Telomerase products were resolved by 10% polyacrylamide gel electrophoresis and visualized by staining with SYBER Green. As a source of telomerase, the total cell lysates derived from lung cancer cell line H1299 cells were used. Protein concentration of the lysates was assayed using Bio-Rad protein assay kit using BSA standards.
In the FIGS. 3A, 3B and FIG. 4, a positive control group (P) used water that had been sterilized three times in the assay; while a negative control group (N) used RNase A (CLONTECH) (5 μL, 0.1 mg/mL) in the assay.
In the positive control group (P), due to the absence of inhibitor, the telomerase could extend the telomere, such that some longer telomere fragments could be observed; while there was not observed in the negative control group (N). In the result of TRAP assay (FIG. 3A to 3B), compounds with a concentration of 10 μM was used as the preliminary screening. In the gel, standard compound A was 1,2-diaminoanthraquinone, D was doxorubicin, and M was mitoxantrone.

H1299 cells [5] = experiment: MTT assay (relative cell survival), H1299; conditions: PhTERT-SEAP (H1299), 100 μM
Method: as §1, §2, §3

| Structure (SMILES) | viability at 72 h, 1 µM (in vitro) | activity at 1 µM ([1]; 1 μM) | activity at 10 µM ([1]; 10 μM) | activity at 100 µM [1] | viability at 72 h, 1 µM [3] | viability at 72 h, 10 µM [3] | viability at 72 h, 100 µM [3] | other results |
| --- | --- | --- | --- | --- | --- | --- | --- | --- |
| O=C1c2ccccc2C(=O)c2c1ccc1nc(CCN3CCN(c4ccccc4)CC3)[nH]c21 [CL37, 2-(2-(4-phenylpiperazin-1-yl)ethyl)-1H-anthra[1,2-d]imidazole-6,11-dione] | 94 ± 0.98% | 104 ± 4.96% | 92.7% | 36.6% | – | – | – | viability at 72 h, 10 µM (in vitro): 96.5% |
| O=C1c2c(O)ccc(O)c2C(=O)c2c(NCCNCCO)ccc(NCCNCCO)c21 [mitoxantrone, reference compound] | 23.7 ± 8.06% | 20.8 ± 1.56% | 9.92 ± 4.8% | 7.19 ± 1.59% | – | – | – | Relative MTT viability (%) (H1299 cells [2]; human, 72 h, 10 µM): −8.51 ± 1.13%; Relative MTT viability (%) (H1299 cells [2]; human, 72 h, 100 µM): −0.44 ± 1.01% |
| CCN1CCN(Cc2nc3ccc4c(c3[nH]2)C(=O)c2ccccc2C4=O)CC1 [CL25, 2-((4-ethylpiperazin-1-yl)methyl)-1H-anthra[1,2-d]imidazole-6,11-dione] | – | 91.8 ± 3% | 13.6% | -4.43% | 86.2 ± 5.18% | < 50% | – | inhibition effect/activity of telomerase (TRAP) [4]: more significant inhibition effect/activity of telomerase |
| O=C1c2ccccc2C(=O)c2c1ccc1nc(CN3CCC(CCCC4CCNCC4)CC3)[nH]c21 [CL20, 2-((4-(3-(piperidin-4-yl)propyl)piperidin-1-yl)methyl)-1H-anthra[1,2-d]imidazole-6,11-dione] | – | 96 ± 5.48% | 7.52% | 3.08% | 97 ± 4.74% | < 50% | – | telomerase inhibiting effect (TRAP) ([4]; 1 μM): telomerase inhibiting effect could be observed still; inhibition effect/activity of telomerase (TRAP) [4]: more significant inhibition effect/activity of telomerase; also recorded: highest inhibition effect/activity of telomerase |
| CN(Cc1nc2ccc3c(c2[nH]1)C(=O)c1ccccc1C3=O)Cc1c2ccccc2cc2ccccc12 [CL11, 2-(((anthracen-10-yl)-N-methylmethanamino)methyl)-1H-anthra[1,2-d]imidazole-6,11-dione] | – | – | – | – | – | – | – | Relative MTT viability (%) (H1299 cells [2]; 1 µM): 98.03 ± 4.48%; Relative MTT viability (%) (H1299 cells [2]; 10 µM): 83.80 ± 5.64%; Relative SEAP activity (%) ([1]; 1 μM): 101.69 ± 5.82%; Relative SEAP activity (%) ([1]; 10 μM): 77.46 ± 6.40% |
| O=C1c2ccccc2C(=O)c2c1ccc1nc(CCCl)[nH]c21 [CL35, 2-(2-chloroethyl)-1H-anthra[1,2-d]imidazole-6,11-dione] | – | 94.7 ± 9.12% | 82.8% | 7.62% | 91.1 ± 5.56% | 85.6% | > 40% | Relative MTT viability (%) (H1299 cells [5]): 40.27 ± 1.32% |
| O=C1c2ccccc2C(=O)c2c1ccc1nc(CNCc3cccc(C(F)(F)F)c3)[nH]c21 [CL13, 2-((3-(trifluoromethyl)benzylamino)methyl)-1H-anthra[1,2-d]imidazole-6,11-dione] | – | 87.1 ± 2.04% | 89.5% | 4.27% | 114 ± 3.31% | 110% | > 40% | Relative MTT viability (%) (H1299 cells [5]): 32.26 ± 2.68% |
| COc1cccc(N2CCN(Cc3nc4ccc5c(c4[nH]3)C(=O)c3ccccc3C5=O)CC2)c1 [CL32, 2-((4-(3-methoxyphenyl)piperazin-1-yl)methyl)-1H-anthra[1,2-d]imidazole-6,11-dione] | 81.3 ± 9.72% | 105 ± 5.64% | < 50% | 3.33% | – | – | – | viability at 72 h, 10 µM (in vitro): > 50%; viability at 72 h, 100 µM (in vitro): 23.9% |
| CC1CCN(Cc2nc3ccc4c(c3[nH]2)C(=O)c2ccccc2C4=O)CC1 [CL17, 2-((4-methylpiperidin-1-yl)methyl)-1H-anthra[1,2-d]imidazole-6,11-dione] | – | 102 ± 4.81% | 97.3% | 25.6% | 114 ± 3.31% | 110% | > 40% | Relative MTT viability (%) (H1299 cells [5]): 32.26 ± 2.68% |
| Nc1ccc2c(c1N)C(=O)c1ccccc1C2=O [1,2-diaminoanthraquinone, reference compound] | 105 ± 9.37% | 98.5 ± 11.7% | 77.3 ± 11.6% | 18.2 ± 4.45% | – | – | – | viability at 72 h, 10 µM (in vitro): 95.5 ± 3.75%; viability at 72 h, 100 µM (in vitro): 39.3 ± 8.84% |
| COc1cccc(CN(C)Cc2nc3ccc4c(c3[nH]2)C(=O)c2ccccc2C4=O)c1 [CL09, 2-((3-methoxy-N-methybenzylamino)methyl)-1H-anthra[1,2-d]imidazole-6,11-dione] | – | 105 ± 3.38% | 78.1% | -3.01% | 96.6 ± 5.02% | 97.6% | 9.24% | – |
| O=C1c2ccccc2C(=O)c2c1ccc1nc(CN3CCN(Cc4ccccc4)CC3)[nH]c21 [CL33, 2-((4-benzylpiperazin-1-yl)methyl)-1H-anthra[1,2-d]imidazole-6,11-dione] | – | 97.8 ± 7.2% | – | -2.7% | 92.6 ± 1.56% | > 50% | 12.7% | – |
| O=C1c2ccccc2C(=O)c2c1ccc1nc(CNCc3ccc(C(F)(F)F)cc3)[nH]c21 [CL14, 2-((4-(trifluoromethyl)benzylamino)methyl)-1H-anthra[1,2-d]imidazole-6,11-dione] | – | 51.6 ± 0.68% | 78.5% | 2.56% | 74.3 ± 4.04% | 10.6% | – | – |
| O=C1c2ccccc2C(=O)c2c1ccc1nc(CCl)[nH]c21 [CL01, 2-(chloromethyl)-1H-anthra[1,2-d]imidazole-6,11-dione] | 82.3 ± 6.19% | 69.2 ± 1.89% | -0.58 ± 1.16% | 2.87 ± 1.42% | – | – | – | viability at 72 h, 10 µM (in vitro): < 50%; Relative MTT viability (%) (H1299 cells [2]; human, 72 h, 100 µM): −5.28 ± 1.13% |
| COc1cccc2c1C(=O)c1c(O)c3c(c(O)c1C2=O)C[C@@](O)(C(=O)CO)C[C@@H]3O[C@H]1C[C@H](N)[C@H](O)[C@H](C)O1 [doxorubicin, reference compound] | 17.1 ± 5.37% | 33.8 ± 3.22% | 13.6 ± 3.56% | 5.18 ± 4.01% | – | – | – | Relative MTT viability (%) (H1299 cells [2]; human, 72 h, 10 µM): −9.79 ± 2.78%; Relative MTT viability (%) (H1299 cells [2]; human, 72 h, 100 µM): −11.38 ± 4.34% |
